Results reported in US20070173490A1, “Novel solid forms of (4R)-1-[2-chloro-5-fluorobenzoyl)amino-3-methoxybenzoyl]-1,2,3,5- tetrahydro-spiro[4h-1-benzazepine-4,1'-[2]cyclopentene]-3'-carboxylic acid” (priority 2006, published 2007).
“Also recorded” adds a separate entry of the source. Values belong to the molecule of their own block, whether it stands above or below them.

Columns and labels:
Format in all cases: physicochemical
[1] = Crystallization solvents list and observations (solubility of the compound in solvents); settings: about 20 mg in 4 ml vial, about 40° C.
Protocol: About 20 mg of (4R)-1-[4-(2-chloro-5-fluorobenzoyl)amino-3-methoxybenzoyl]-1,2,3,5-tetrahydro-spiro[4H-1-benzazepine-4,1′-[2]cyclopentene]-3′-carboxylic acid was transferred into a 4 ml vial. Solvent was added in the vial to make the solution or suspension depending on solubility at about 40° C. on hot plate. The vial was removed from hot plate and kept at room temperature. The caps were put on without sealing. All the vials were placed in the hood for slow evaporation. After the solvent evaporated, the solid was investigated using PXRD, DSC, TGA, and microscope.

[2] = Water slurry study of polymorph stability
Protocol: Form 6 was crystallized from acetone, butanol, ethanol, isopropyl alcohol, hexane, and water. It melted with a peak at about 203-204° C. and a heat of fusion of about 75-80 J/g.

[3] = Solid form conversion on heating/desolvation via DSC; settings: conversions occurred via DSC, upon heating/desolvation
Protocol: DSC analysis of each sample was performed using a Q100 Differential Scanning Calorimeter (TA Instruments, New Castle, Del., U.S.A.), which uses Thermal Advantage™ version 4.1.0 for operating instrument. In addition, the analysis software used was Universal Analysis 2000 for Windows 2000/XP, version 4.1D; Build 4.1.0.16 (Copyright © 1998-2004 TA Instruments-Water LLC).
For all of the DSC analyses, an aliquot of a sample was weighed into either a standard aluminium pan (Pan part #900786.091; lid part #900779.901) or a hermetic aluminium pan (Pan part #900793.901; lid part #900794.901 (TA Instruments, New Castle Del. USA)). Non-solvated samples were loaded into standard pans and were sealed either by crimping for dry samples or press fitting for wet samples (such as slurries). Solvated samples (including hydrates) were loaded into hermetic pans and hermetically sealed. The sample pan was loaded into the Q100 Differential Scanning Calorimeter, which is equipped with an autosampler, and a thermogram was obtained by individually heating the same using the control software at a rate of 10° C./minute from Tmin (typically 25° C.) to Tmax (typically 275° C.) using an empty aluminium pan as a reference. Dry nitrogen (compressed nitrogen, grade 4.8 (BOC Gases, Murray Hill, N.J. USA)) was used as a sample purge gas and was set at a flow rate of 50 mL/minute. Thermal transitions were viewed and analyzed using the analysis software provided with the instrument.
At least 10 forms were discovered based on distinguished PXRD patterns (all conversions occurred via DSC; such conversions can also occur under ambient conditions at a slower pace).

Structure (SMILES): COc1cc(C(=O)N2CC[C@]3(C=C(C(=O)O)CC3)Cc3ccccc32)ccc1NC(=O)c1cc(F)ccc1Cl [Compound of Formula (I), (4R)-1-[4-(2-chloro-5-fluorobenzoyl)amino-3-methoxybenzoyl]-1,2,3,5-tetrahydro-spiro[4H-1-benzazepine-4,1′-[2]cyclopentene]-3′-carboxylic acid]
Observation (solubility) ([1]; 1,4-Dioxane): Good solubility
Observation (solution or suspension) ([1]; 1,4-Dioxane): Solution
Observation (solubility) ([1]; Acetone): Good solubility
Observation (solution or suspension) ([1]; Acetone): Solution
Observation (solubility) ([1]; Acetonitrile): Good solubility
Observation (solution or suspension) ([1]; Acetonitrile): Solution
Observation (solubility) ([1]; Butanol): Medium solubility
Observation (solution or suspension) ([1]; Butanol): Solution
Observation (solubility) ([1]; Dichloromethane): Good solubility
Observation (solution or suspension) ([1]; Dichloromethane): Solution
Observation (solubility) ([1]; Ethanol): Medium solubility
Observation (solution or suspension) ([1]; Ethanol): Solution
Observation (solubility) ([1]; Ethyl acetate): Good solubility
Observation (solution or suspension) ([1]; Ethyl acetate): Solution
Observation (solubility) ([1]; Hexane): Poor solubility
Observation (solution or suspension) ([1]; Hexane): Suspension
Observation (solubility) ([1]; Isopropyl alcohol): Medium solubility
Observation (solution or suspension) ([1]; Isopropyl alcohol): Solution
Observation (solubility) ([1]; Methanol): Medium solubility
Observation (solution or suspension) ([1]; Methanol): Solution
Observation (solubility) ([1]; Nitromethane): Good solubility
Observation (solution or suspension) ([1]; Nitromethane): Solution
Observation (solubility) ([1]; Toluene): Solution is not clear
Observation (solution or suspension) ([1]; Toluene): Precipitation
Observation (solubility) ([1]; Water): Poor wetability
Observation (solution or suspension) ([1]; Water): Suspension

Structure (SMILES): COc1cc(C(=O)N2CC[C@]3(C=C(C(=O)O)CC3)Cc3ccccc32)ccc1NC(=O)c1cc(F)ccc1Cl [Form 1, (4R)-1-[4-(2-chloro-5-fluorobenzoyl)amino-3-methoxybenzoyl]-1,2,3,5-tetrahydro-spiro[4H-1-benzazepine-4,1′-[2]cyclopentene]-3′-carboxylic acid]
Solid form conversion in water slurry ([2]; equal amount of forms 1, 5 and 6 mixed in water for more than 76 hours): converted to form 6

Structure (SMILES): COc1cc(C(=O)N2CC[C@]3(C=C(C(=O)O)CC3)Cc3ccccc32)ccc1NC(=O)c1cc(F)ccc1Cl [Form 2, (4R)-1-[4-(2-chloro-5-fluorobenzoyl)amino-3-methoxybenzoyl]-1,2,3,5-tetrahydro-spiro[4H-1-benzazepine-4,1′-[2]cyclopentene]-3′-carboxylic acid]
Solid form conversion (physical stability) ([3]; listed as 2): (solvate converted to form 6)

Structure (SMILES): COc1cc(C(=O)N2CC[C@]3(C=C(C(=O)O)CC3)Cc3ccccc32)ccc1NC(=O)c1cc(F)ccc1Cl [Form 3, (4R)-1-[4-(2-chloro-5-fluorobenzoyl)amino-3-methoxybenzoyl]-1,2,3,5-tetrahydro-spiro[4H-1-benzazepine-4,1′-[2]cyclopentene]-3′-carboxylic acid]
Solid form conversion (physical stability) [3]: converted to form 5
Solid form conversion (physical stability) ([3]; listed as 3): (solvate converted to form 5)

Structure (SMILES): COc1cc(C(=O)N2CC[C@]3(C=C(C(=O)O)CC3)Cc3ccccc32)ccc1NC(=O)c1cc(F)ccc1Cl [Form 4, (4R)-1-[4-(2-chloro-5-fluorobenzoyl)amino-3-methoxybenzoyl]-1,2,3,5-tetrahydro-spiro[4H-1-benzazepine-4,1′-[2]cyclopentene]-3′-carboxylic acid]
Solid form conversion (physical stability) ([3]; listed as 4): (solvate converted to an amorphous form)

Structure (SMILES): COc1cc(C(=O)N2CC[C@]3(C=C(C(=O)O)CC3)Cc3ccccc32)ccc1NC(=O)c1cc(F)ccc1Cl [Form 6, (4R)-1-[4-(2-chloro-5-fluorobenzoyl)amino-3-methoxybenzoyl]-1,2,3,5-tetrahydro-spiro[4H-1-benzazepine-4,1′-[2]cyclopentene]-3′-carboxylic acid]
Thermodynamic stability among polymorphs ([2]; from highest melting temperature and heat of fusion, confirmed by water slurry study): thermodynamically most stable polymorph

The next lines start with results.

Solid form conversion (physical stability) ([3]; listed as 7): (solvate converted to form 1)
Solid form conversion (physical stability) ([3]; listed as form 7): converted to form 1
Structure (SMILES): COc1cc(C(=O)N2CC[C@]3(C=C(C(=O)O)CC3)Cc3ccccc32)ccc1NC(=O)c1cc(F)ccc1Cl [Form 7, (4R)-1-[4-(2-chloro-5-fluorobenzoyl)amino-3-methoxybenzoyl]-1,2,3,5-tetrahydro-spiro[4H-1-benzazepine-4,1′-[2]cyclopentene]-3′-carboxylic acid]
Solid form conversion (physical stability) [3]: converted to form 1; also recorded: ultimately to form 6

Solid form conversion (physical stability) [3]: converted to form 1
Solid form conversion (physical stability) ([3]; listed as 8): (solvate converted to form 1)
Solid form conversion (physical stability) ([3]; listed as form 8): converted to form 1
Structure (SMILES): COc1cc(C(=O)N2CC[C@]3(C=C(C(=O)O)CC3)Cc3ccccc32)ccc1NC(=O)c1cc(F)ccc1Cl [Form 8, (4R)-1-[4-(2-chloro-5-fluorobenzoyl)amino-3-methoxybenzoyl]-1,2,3,5-tetrahydro-spiro[4H-1-benzazepine-4,1′-[2]cyclopentene]-3′-carboxylic acid]
